From patent US20200085778A1, “Agent for Promoting Decomposition and Clearance of Amyloid-Beta” (Kao Corporation, priority 2017, published 2020)

Molecular target: T1, aggregated amyloid-β (amyloid-β peptide, Human, 1-42) (Homo sapiens, UniProt P05067)
T1 construct: An amyloid-β peptide (Human, 1-42, Peptide Institute, Inc.); purchased Peptide Institute, Inc
Assay: thioflavin T (ThT) fluorescence assay of degrading aggregated amyloid
Assay type: biochemical
Settings: final concentration 1, 10, or 100 μM, 37° C. for 7 days, vs 0.5% DMSO control; FIG. 1
Experimental: The direct activity of degrading aggregated amyloid by chlorogenic acid (5-CQA) was examined using a thioflavin T (ThT) fluorescence assay. An amyloid-β peptide (Human, 1-42, Peptide Institute, Inc.) was dissolved in dimethyl sulfoxide (DMSO) to 2.5 mM and was further adjusted to 250 μM with sterile water, followed by incubation at 37° C. for 7 days to promote the aggregation reaction. After the reaction, chlorogenic acid (5-CQA, Cayman Chemical Company) was added to the aggregated amyloid-β (10 mass %) at a final concentration of 1, 10, or 100 μM, followed by further incubation at 37° C. for 7 days. As a control, 0.5% DMSO, which was used as the solvent of the chlorogenic acid, was added. After the reaction, ThT (Sigma-Aldrich, final concentration: 5 μM) dissolved in 50 mM glycine buffer (pH 8.5) was added to the reaction solution in a 96-well plate (ThermoFisher Scientific), followed by a reaction at room temperature for 15 minutes while gently stirring under light shielding. After the reaction, fluorescence was detected at 450 nm (excitation) and 480 nm (emission) using a fluorescence plate reader (Ensight 3400, PerkinElmer Co., Ltd.) to measure the degree of aggregation of amyloid-β.

T1 sequence (P05067 672-713): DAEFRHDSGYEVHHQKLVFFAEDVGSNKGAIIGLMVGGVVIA

Structure (SMILES): O=C(/C=C/c1ccc(O)c(O)c1)O[C@@H]1C[C@](O)(C(=O)O)C[C@@H](O)[C@H]1O [chlorogenic acid, 5-caffeoylquinic acid]
- activity of degrading aggregated amyloid (degree of aggregation of amyloid-β, ThT fluorescence): has an activity of degrading aggregated amyloid in a dose-dependent manner
